Test results from EP0296592A2, “Aminopropanol derivatives of 3-(2-hydroxyphenyl)-1-propanone, process for their preparation and medicines containing these compounds” (Helopharm W. Petrik GmbH & Co.KG., priority 1987, dated 1988).
Counter-ions that a name gives are not always drawn. Like-named read-outs stand apart in the source and are kept apart here.

Assays:
[1] = system: Purkinje-Fasern aus Hundeherzen; experiment: Electrophysiological studies on Purkinje fibres (Vmax); assay type: cell-based, Hund; conditions: for IC20: purkinje, read-out: C20 Vmax
Excerpt: Die antiarrhythmische Wirksamkeit der erfindungsgemäßen Verbindungen wurde sowohl anhand von elektrophysiologischen Studien an Purkinje-Fasern aus Hundeherzen sowie mit Hilfe von Ouabain-induzierten ventrikulären Tachykardien bei Hunden bestimmt. […]
Als zusätzliches Kriterium wurde der Vorzeitigkeitsindex (Prematurity-Faktor) bestimmt, der die erwünschte Wirksamkeit der erfindungsgemäßen Verbindungen bei vorzeitigen Extrasystolen charakterisiert.

[2] = system: Meerschweinchen-Papillarmuskel; experiment: Contraction force of the heart on papillary muscle (negative inotropy); assay type: cell-based; conditions: for IC20: concentration that reduces contraction of the papillary muscle by 20 %, read-out: C20 CF
Excerpt: Die Wirkung auf die Kontraktionskraft des Herzens wurde am Meerschweinchen-Papillarmuskel untersucht. Hämodynamische Studien wurden bei gesunden, wie auch akut infarzierten Hunden durchgeführt.

[3] = Acute toxicity LD50, mouse i.v.; conditions: in vivo, iv, Maus (i.v.), read-out: LD₅₀
Excerpt: (§1) Dies ergibt sich aus einem Vergleich der LD₅₀-Werte bei Ratten und Mäusen, die in Tabelle (II) zusammengefaßt sind. Tabelle I

[4] = Acute toxicity LD50, rat i.v.; conditions: in vivo, iv, Ratte (i.v.), read-out: LD₅₀
Excerpt: as §1

[5] = (% of control Vmax at cycle length 2000) / (% of control Vmax at cycle length 500) at C20 Vmax
[6] = (% of control Vmax at premature extrasystoles) / (% of control Vmax at a normal beat) at Vmax

Row | SMILES | C20 Vmax [1] | Prematurity Faktor Vmax [1] | Rate-Faktor von Vmax [1] | C20 CF [2] | LD50 [3] | Rate-Faktor von Vmax [1, 5] | Prematurity Faktor Vmax [1, 6] | IC20 [1] | LD50 [4] | IC20 [2]
1 | CCCNCC(O)COc1ccccc1C(=O)CCc1ccccc1 (centres unmarked) [A, Propafenon, reference compound] | 3,7 µM | 0,97 | 1,08 | 5,3 µM | – | – | – | – | – | –
2 | CCCNCC(O)COc1ccccc1CCC(=O)c1ccc(OC)c(OC)c1.Cl (centres unmarked) [Beispiel 1, 1-(3,4-Dimethoxyphenyl)-3-[2′-(2-hydroxy-3-n-propylaminopropoxy)-phenyl]-1-propanon-hydrochlorid] | – | – | – | – | 16 mg/kg | 5,00 | 0,50 | 12.5 µM | 17 mg/kg | 15 µM
3 | CCC(C)(C)NCC(O)COc1ccccc1CCC(=O)c1ccc(OC)c(OC)c1.Cl (centres unmarked) [Beispiel 2, 1-(3,4-Dimethoxyphenyl)-3-[2′-(2-hydroxy-3-tert.-pentylamino-propoxy)-phenyl]-1-propanon-hydrochlorid] | – | – | – | – | – | 1,27 | 1,15 | 3.6 µM | – | 8 µM
4 | COc1ccc(C(=O)CCc2ccccc2OCC(O)CNC(C)C)cc1OC.Cl (centres unmarked) [Beispiel 4, 1-(3,4-Dimethoxyphenyl)-3-[2′-(2-hydroxy-3-isopropylamino-propoxy)-phenyl]-1-propanon-hydrochlorid] | – | – | – | – | – | 1,13 | 1,01 | 4.8 µM | – | 22 µM
5 | COc1ccc(C(=O)CCc2ccccc2OCC(O)CNC(C)(C)C)cc1OC.Cl (centres unmarked) [Beispiel 5, 1-(3,4-Dimethoxyphenyl)-3-[2′-(2-hydroxy-3-tert.-butylamino-propoxy)-phenyl]-1-propanon-hydrochlorid] | – | – | – | – | – | 1,39 | 0,98 | 4.4 µM | – | 12 µM
6 | COc1ccc(C(=O)CCc2ccccc2OCC(O)CN2CCCCC2)cc1OC (centres unmarked) [Beispiel 6] | 11,3 µM | 0,70 | 1,32 | 20,0 µM | – | – | – | – | – | –
7 | COc1ccc(C(=O)CCc2ccccc2OCC(O)CNCC(C)O)cc1OC (centres unmarked) [Beispiel 7, 1-(3,4-Dimethoxyphenyl)-3-[2′-(2-hydroxy-3(2˝-hydroxy-propylamino)-propoxy)-phenyl]-1-propanon-hydrochlorid] | 5,7 µM | 0,98 | 1,39 | 18,0 µM | – | – | – | – | – | –
8 | COc1ccc(C(=O)CCc2ccccc2OCC(O)CNCCO)cc1OC (centres unmarked) [Beispiel 8, 1-(3,4-Dimethoxyphenyl)-3-[2′-(2-hydroxy-3(2˝-hydroxy-ethylamino)-propoxy)-phenyl]-1-propanon-hydrochlorid] | 8,3 µM | 0,97 | 1,34 | 13,0 µM | – | – | – | – | – | –
9 | CCC(CO)NCC(O)COc1ccccc1CCC(=O)c1ccc(OC)c(OC)c1 (centres unmarked) [Beispiel 9, 1-(3,4-Dimethoxyphenyl)-3-[2′-(2-hydroxy-3-(1˝-hydroxy-but-2-ylamino)-propoxy)-phenyl]-1-propanon-oxalat] | 10,2 µM | 0,97 | 1,30 | 25,0 µM | – | – | – | – | – | –
10 | COc1cc(C(=O)CCc2ccccc2OCC(O)CNC(C)C)cc(OC)c1OC.Cl (centres unmarked) [Beispiel 12, 1-(3,4,5-Trimethoxyphenyl)-3-[2′-(2-hydroxy-3-isopropylamino-propoxy)-phenyl]-1-propanon-hydrochlorid] | – | – | – | – | – | 1,14 | 0,90 | 5.8 µM | – | 18 µM
11 | COc1cc(C(=O)CCc2ccccc2OCC(O)CNC2CCCCC2)cc(OC)c1OC.Cl (centres unmarked) [Beispiel 16, 1-(3,4,5-Trimethoxyphenyl)-3-[2′-(2-hydroxy-3-cyclohexylamino-propoxy)-phenyl]-1-propanon-hydrochlorid] | – | – | – | – | – | 5,00 | 0,50 | 11.9 µM | – | 9 µM
12 | COc1cccc(C(=O)CCc2ccccc2OCC(O)CNC(C)C)c1.Cl (centres unmarked) [Beispiel 24, 1-(3-Methoxyphenyl)-3-[2′-(2-hydroxy-3-isopropylamino-propoxy)-phenyl]-1-propanon-hydrochlorid] | – | – | – | – | – | 1,15 | 1,01 | 1.6 µM | – | 10 µM
13 | CCCNCC(O)COc1ccccc1CCC(=O)c1cccc(OC)c1.Cl (centres unmarked) [Beispiel 26, 1-(3-Methoxyphenyl)-3-[2′-(2-hydroxy-3-n-propylamino-propoxy)-phenyl]-1-propanon-hydrochlorid] | – | – | – | – | – | 1,16 | 0,93 | 1.7 µM | – | 3 µM
14 | COc1cccc(C(=O)CCc2ccccc2OCC(O)CNC(C)(C)C)c1.Cl (centres unmarked) [Beispiel 27, 1-(3-Methoxyphenyl)-3-[2′-(2-hydroxy-3-tert.-butylamino-propoxy)-phenyl]-1-propanon-hydrochlorid] | – | – | – | – | – | 0,99 | 1,24 | 1.6 µM | – | 4 µM
15 | COc1ccccc1C(=O)CCc1ccccc1OCC(O)CNC(C)(C)C.Cl (centres unmarked) [Beispiel 38, 1-(2-Methoxyphenyl)-3-[2′-(2-hydroxy-3-tert.-butylamino-propoxy)-phenyl]-1-propanon-hydrochlorid] | – | – | – | – | 17 mg/kg | 1,30 | 0,97 | 1.7 µM | 15 mg/kg | 7 µM
16 | Cc1ccc(C(=O)CCc2ccccc2OCC(O)CNC(C)(C)C)cc1.Cl (centres unmarked) [Beispiel 44, 1-(4-Methylphenyl)-3-[2′-(2-hydroxy-3-tert.-butylamino-propoxy)-phenyl]-1-propanon-hydrochlorid] | – | – | – | – | – | 1,11 | 0,99 | 2.6 µM | – | 6 µM
17 | Cl.O=C(CCc1ccccc1OCC(O)CNC1CCCCC1)c1ccccc1 (centres unmarked) [Beispiel 46, 1-Phenyl,-3-[2′-(2-hydroxy-3-cyclohexylamino-propoxy)-phenyl]-1-propanon-hydrochlorid] | – | – | – | – | – | 2,50 | 0,92 | 2.2 µM | – | 2 µM
18 | Cl.O=C(CCc1ccccc1OCC(O)CN1CCCCC1)c1ccccc1 (centres unmarked) [Beispiel 47, 1-Phenyl-3-[2′-(2-hydroxy-3-piperidino-propoxy)-phenyl]-1-propanon-hydrochlorid] | – | – | – | – | – | 1,08 | 0,99 | 0.3 µM | – | 2 µM
19 | CC(C)(C)NCC(O)COc1ccccc1CCC(=O)c1ccccc1.Cl (centres unmarked) [Beispiel 48, 1-Phenyl-3-[2′-(2-hydroxy-3-tert.-butylamino-propoxy)-phenyl]-1-propanon-hydrochlorid] | – | – | – | – | – | 1,18 | 0,91 | 1 µM | – | 3 µM
